Data reported in patent US20070259856A1, “Method for Activating Trpv4 Channel Receptors by Agonists” (priority 2004, published 2007).

How the values were obtained:
proteoglycan synthesis = assay: Proteoglycan synthesis ([35S] incorporation), bovine articular chondrocytes in alginate beads; format: cell-based; conditions: IL-1 10 ng/mL
Description: Although cartilage degradation is the hallmark of osteoarthritis, there is also a reduction in the ability of chondrocytes to resynthesize damaged matrix. It has been observed that cytokines, including IL-1, cause a significant reduction in collagen and proteoglycan (PG) synthesis. The effect on matrix synthesis, combined with the stimulation of matrix breakdown by these cytokines, leads to an overall net loss of cartilage matrix. The effects of TRPV4 channel receptor agonists on the synthesis of proteoglycans was measured by [^35S] incorporation in bovine articular chondrocytes embedded in alginate beads. IL-1 caused an inhibition of [^35S] incorporation into large molecular weight proteoglycan monomers, and Formula IIb caused a concentration-dependent reversal of the IL1-mediated inhibition of PG synthesis as shown in Table 10.

nitric oxide = assay: IL-1 induced nitric oxide production, bovine articular chondrocytes in alginate beads (Greiss reaction); format: cell-based; conditions: IL-1 10 ng/mL
Description: Nitric oxide (NO) is a free radical that is believed to contribute to the tissue destruction in osteoarthritis. While having direct effects on cartilage matrix damage, NO can also contribute by activating latent proteases which leads to increased tissue destruction. To evaluate the effect of TRPV4 channel receptor agonists on NO production, bovine articular chondrocytes were embedded in alginate beads as described in Hauselmann, et al. (1992) Matrix 12: 116-129, and NO levels were determined in the conditioned media by Greiss reaction (Badger A M, et al. (1998) J. Immunol. 161: 467-473), following stimulation by IL-1, in the absence or presence of TRPV4 channel receptor agonist.

[1] = test system: bovine articular cartilage explants; assay: IL-1 induced collagen degradation (hydroxyproline) in bovine articular cartilage explants; format: cell-based; conditions: 1 uM, IL-1 50 ng/ml, media from day 14-18
Description: IL-1 stimulates collagen degradation in bovine articular cartilage explants after extended (−2-3 weeks) exposure to IL-1. Collagen breakdown was evaluated by measuring the levels of hydroxyproline, a major component of hydrolyzed collagen fibrils, using a colorimetric assay that is understood in the art. Bovine articular cartilage was stimulated with IL-1 for 18 days, in the absence or presence of Formula Ib or Formula IId (both at 1 uM). Media was removed and replaced every 2-4 days with fresh IL-1 and compound through day 18. As has been shown previously, aggrecan degradation precedes collagen breakdown in IL-1-stimulated bovine cartilage explants. Once aggrecan depletion had been achieved by day 10, media were analyzed for collagen breakdown using the hydroxyproline assay.

aggrecanase = assay: IL-1 induced aggrecanase production, chondrocyte-based aggrecanase peptide cleavage assay; format: cell-based, bovine; conditions: IL-1 3.0 ng/mL; for Aggrecanase Production (Mean ± SEM OD 450 nm): 24 hour
Description: Aggrecanases (ADAMTSs), in conjunction with MMPs, degrade aggrecan, one of the major matrix components in articular cartilage. […] 2003; 48(1): 119-133].

MMP-3 = assay: IL-1 induced MMP-3 production in human chondrocytes; format: cell-based; conditions: IL-1 10 ng/mL, 24 hours
Description: (§1) Human chondrocytes were exposed to L-1 (10 ng/mL) to induce MMP-3 and MMP-13 production. Increased production of MMP-3 and MMP-13 was verified by both Northern blot (mRNA) and ELISA assay (protein). Cells were exposed to Formula IIb at concentrations ranging from 0.1 μM to 10 μM. […] TRPV4 channel receptor agonist inhibits IL-1-induced MMP-3 and MMP-13 production.

MMP-13 = assay: IL-1 induced MMP-13 production in human chondrocytes; format: cell-based; conditions: IL-1 10 ng/mL, 24 hours
Description: as §1

ADAMTS-4 (aggrecanase-1) = target: T1, ADAMTS-4 (aggrecanase-1) (Homo sapiens, UniProt O75173); assay: Cleavage of the peptide substrate by soluble ADAMTS-4; format: biochemical
T1 sequence (O75173 213-837): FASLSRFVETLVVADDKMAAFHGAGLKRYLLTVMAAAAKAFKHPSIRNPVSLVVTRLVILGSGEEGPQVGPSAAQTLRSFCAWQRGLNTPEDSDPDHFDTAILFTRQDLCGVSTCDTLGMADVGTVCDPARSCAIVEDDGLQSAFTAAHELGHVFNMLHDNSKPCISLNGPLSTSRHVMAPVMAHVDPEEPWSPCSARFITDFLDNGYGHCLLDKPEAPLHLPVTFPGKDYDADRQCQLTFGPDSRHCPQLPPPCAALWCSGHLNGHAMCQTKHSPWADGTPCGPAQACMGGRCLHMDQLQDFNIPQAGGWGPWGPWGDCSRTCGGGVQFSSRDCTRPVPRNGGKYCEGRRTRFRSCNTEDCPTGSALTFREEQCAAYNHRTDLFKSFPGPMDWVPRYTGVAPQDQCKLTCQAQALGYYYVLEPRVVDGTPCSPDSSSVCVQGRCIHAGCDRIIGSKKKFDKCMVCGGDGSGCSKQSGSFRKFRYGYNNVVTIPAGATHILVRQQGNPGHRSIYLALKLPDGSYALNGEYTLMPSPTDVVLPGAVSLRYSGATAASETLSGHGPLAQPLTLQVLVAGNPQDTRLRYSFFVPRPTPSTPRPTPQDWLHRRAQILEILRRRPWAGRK

**Q.** Which “% IL-1 reversal” value (proteoglycan synthesis; 0.3 uM) does the source give for `CC(C)C[C@H](NC(=O)c1cc2ccccc2s1)C(=O)N[C@@H]1CCCN(S(=O)(=O)c2ccc(F)cc2)CC1=O` [Formula IIb, N-{(1S)-1-[({(4R)-1-[(4-fluorophenyl)sulfonyl]-3-oxohexahydro-1H-azepin-4-yl}amino)carbonyl]-3-methylbutyl}-1-benzothiophene-2-carboxamide] here?
**A.** 3%

**Q.** What about the “PG synthesis Mean ± SEM” value (proteoglycan synthesis; 0.3 uM) of the same molecule?
**A.** 878 ± 48 cpm/bead

**Q.** What about the “% IL-1 reversal” value (proteoglycan synthesis; 1.0 uM) of the same molecule?
**A.** 15%

**Q.** And the “PG synthesis Mean ± SEM” value (proteoglycan synthesis; 1.0 uM)?
**A.** 1066 ± 69 cpm/bead

**Q.** And the “% IL-1 reversal” value (proteoglycan synthesis; 3.0 uM)?
**A.** 44%

**Q.** What about the “PG synthesis Mean ± SEM” value (proteoglycan synthesis; 3.0 uM) of the same molecule?
**A.** 1530 ± 73 cpm/bead

**Q.** And the “NO levels Mean ± SEM” value (nitric oxide; 0.3 μM)?
**A.** 17 ± 1 µM

**Q.** And the “NO levels Mean ± SEM” value (nitric oxide; 1.0 μM)?
**A.** 6 ± 1 µM

**Q.** What about the “NO levels Mean ± SEM” value (nitric oxide; 3.0 μM) of the same molecule?
**A.** 2 ± 0 µM

**Q.** And the inhibition at 0.3 µM (nitric oxide; Bos taurus, Chondrocyte, 0.3 μM, read-out: % inhibition of NO)?
**A.** 38%

**Q.** And the inhibition at 1 µM (nitric oxide; Bos taurus, Chondrocyte, 1.0 μM, read-out: % inhibition of NO)?
**A.** 81%

**Q.** And the inhibition at 3 µM (nitric oxide; Bos taurus, Chondrocyte, 3.0 μM, read-out: % inhibition of NO)?
**A.** 96%

**Q.** What about the “Hydroxyproline Mean ± SEM” value [1] of the same molecule?
**A.** 16 ± 6 µg

**Q.** And the inhibition at 1 µM ([1]; Bos taurus, 336 h)?
**A.** 81%

**Q.** And the “Aggrecanase Production (Mean ± SEM OD 450 nm)” value (aggrecanase; 0.03 μM)?
**A.** 2.018 ± 0.044 OD 450 nm

**Q.** And the “Aggrecanase Production (Mean ± SEM OD 450 nm)” value (aggrecanase; 0.10 μM)?
**A.** 1.669 ± 0.029 OD 450 nm

**Q.** What about the “Aggrecanase Production (Mean ± SEM OD 450 nm)” value (aggrecanase; 0.30 μM) of the same molecule?
**A.** 1.139 ± 0.032 OD 450 nm

**Q.** And the “Aggrecanase Production (Mean ± SEM OD 450 nm)” value (aggrecanase; 1.00 μM)?
**A.** 0.851 ± 0.024 OD 450 nm

**Q.** And the inhibition at 0.03 µM (aggrecanase; Bos taurus, 0.03 μM)?
**A.** 11%

**Q.** What about the inhibition at 0.1 µM (aggrecanase; Bos taurus, 0.10 μM) of the same molecule?
**A.** 33%

**Q.** And the inhibition at 0.3 µM (aggrecanase; Bos taurus, 0.30 μM)?
**A.** 65%

**Q.** What about the inhibition at 1 µM (aggrecanase; Bos taurus, 1.00 μM) of the same molecule?
**A.** 83%

**Q.** What about the “MMP-3 mRNA expression Mean” value (MMP-3; 0.1 μM) of the same molecule?
**A.** 0.92 Fraction of IL-1

**Q.** And the “MMP-3 mRNA expression Mean” value (MMP-3; 0.3 μM)?
**A.** 0.91 Fraction of IL-1

**Q.** What about the “MMP-3 mRNA expression Mean” value (MMP-3; 1.0 μM) of the same molecule?
**A.** 0.88 Fraction of IL-1

**Q.** And the “MMP-3 mRNA expression Mean” value (MMP-3; 3.0 μM)?
**A.** 0.68 Fraction of IL-1

**Q.** What about the “MMP-3 mRNA expression Mean” value (MMP-3; 10.00 μM) of the same molecule?
**A.** 0.43 Fraction of IL-1

**Q.** What about the “MMP-13 mRNA expression Mean” value (MMP-13; 0.1 μM) of the same molecule?
**A.** 0.89 Fraction of IL-1

**Q.** What about the “MMP-13 mRNA expression Mean” value (MMP-13; 0.3 μM) of the same molecule?
**A.** 0.87 Fraction of IL-1

**Q.** And the “MMP-13 mRNA expression Mean” value (MMP-13; 1.0 μM)?
**A.** 0.79 Fraction of IL-1

**Q.** And the “MMP-13 mRNA expression Mean” value (MMP-13; 3.0 μM)?
**A.** 0.29 Fraction of IL-1

**Q.** And the “MMP-13 mRNA expression Mean” value (MMP-13; 10.00 μM)?
**A.** 0.09 Fraction of IL-1

**Q.** What about the “effect on cleavage of the peptide substrate by soluble ADAMTS-4” value (ADAMTS-4 (aggrecanase-1)) of the same molecule?
**A.** no effect
